US4596808A, “Pharmacologically active 3-substituted beta-carbolines useful as tranquilizers” (Schering Aktiengesellschaft, priority 1980, dated 1986)
Like-named read-outs stand apart in the source and are kept apart here.

Assays:
benzodiazepine receptor [1] = assay: In vivo inhibition of 3H-flunitrazepam binding to the benzodiazepine receptor in living brain (ED50); settings: mice, subcutaneous, 3H-flunitrazepam i.v. 15 min later
benzodiazepine receptor [2] = assay: Displacement of 3H-flunitrazepam from benzodiazepine receptors in vitro (IC50); assay type: binding; settings: rat forebrain, 3H-flunitrazepam 1.0 nM, 0° C.
Source text: For example, it is known that certain locations in the central nervous system of vertebrates have a high specific affinity for bonding 1,4 and 1,5-benzodiazepines. (See, e.g., R. F. Squires & C. Braestrup, Nature [London] 266 [1977], 734, which is incorporated by reference herein). These locations are called benzodiazepine receptors.
This displacement activity of the compounds of this invention has been determined by measuring IC50 and ED50 values. The IC50 value is the concentration which causes a 50% displacement of the specific binding of ^3 H-flunitrazepam (1.0 nM, 0° C.) in samples with a total volume of 0.55 ml of a suspension of brain membrane, e.g., from rats.
The displacement test is carried out as follows:
0.5 ml of a suspension of untreated rat forebrain in 25 mM KH2 PO4, at a pH of 7.1 (5-10 mg of tissue per sample) were incubated with ^3 H-diazepam (specific activity 14.4 Ci/millimole, 1.9 nM) or ^3 H-flunitrazepam (specific activity 87 Ci/millimole, 1.0 nM) for 40-60 minutes at 0° C. After incubation, the suspension is filtered through a glass frit, the residue is washed twice with a cold buffer solution and the radioactivity is measured by scintillation counting.
The test is then repeated, except prior to addition of the radioactively marked benzodiazepine, a given amount or an excess amount of the compound whose displacement activity is to be ascertained, is added. The IC50 value can then be computed from the test results obtained.

[3] = test system: pentazole-induced convulsions; assay: Antagonism of pentazole-induced convulsions; assay type: in vivo; settings: sc
Source text: Moreover, the antagonism of pentazole-induced convulsions was investigated.
The test has been performed according to known test models in pharmacology,e.g., described in R. A. Turner, Screening Methods in Pharmacology, Academic Press, N.Y. and London 1965, esp. p. 164 ff., or, Woodbury, P. M., Perry, I. K. and Schmidt, R. P. Antiepileptic Drugs, Raven Press, N.Y. 1972.

male mice = assay: Inhibition of aggression in isolated male mice; assay type: in vivo; settings: Mus musculus, 0.5 h, half an hour
Experimental: The compounds of the invention have an antiaggressive effect on mice. Aggression inhibition was determined on male mice (NMR from Moellegard, Denmark) with weights of 20-22 g. The mice are kept isolated for three weeks in plastic cages and when two mice are subsequently put into the same cage, they will spontaneously and almost instantaneously start to fight.
J. Pharmacol., 1978, 47, 45-49. The compounds of this invention were administered subcutaneously and orally and the anti-aggressive effect half an hour later was determined. The ED50 values were determined from the test results. These test results are listed in Table 2 for compounds of this invention and also for several known tranquilizers.

[4] = clonic, read-out: Antagonism of pentazole-induced convulsions, ED50 s.c., Clonic convulsions
[5] = death, read-out: Antagonism of pentazole-induced convulsions, ED50 s.c., Death
[6] = tonic, read-out: Antagonism of pentazole-induced convulsions, ED50 s.c., Tonic convulsions
[7] = sc, s.c., read-out: Inhibition of Aggression ED50, s.c.
[8] = po, p.o., read-out: Inhibition of Aggression ED50, p.o.

| Structure (SMILES) | In vivo ED50, inhibition of 3H flunitrazepam binding (Affinity for the benzodiazepine receptor) (benzodiazepine receptor [1]) [mg/kg] | In vitro IC50, inhibition of 3H flunitrazepam binding (Affinity for the benzodiazepine receptor) (benzodiazepine receptor [2]) [µg/mL] | ED50 [3, 4] [mg/kg] | ED50 [3, 5] [mg/kg] | ED50 [3, 6] [mg/kg] | ED50 (male mice; [7]) [mg/kg] | ED50 (male mice; [8]) [mg/kg] |
| --- | --- | --- | --- | --- | --- | --- | --- |
| CCOC(=O)C=Cc1cc2c(cn1)[nH]c1ccccc12 [CHCHCOOC2 H5, ethyl-3-(3-beta-carbolinyl)-acrylate] | > 250 | 0.0589 | > 100 | 35 | 100 | 4 | – |
| CC(=NO)c1cc2c(cn1)[nH]c1ccccc12 [drawing 39] | – | – | – | – | – | – | 75 |
| CCOC(=O)Cc1cc2c(cn1)[nH]c1ccccc12 [CH2 COOC2 H5] | > 250 | 0.363 | – | – | – | 75 | – |
| CN(C)N=Cc1cc2c(cn1)[nH]c1ccccc12 [drawing 40] | – | – | 20 | < 10 | < 10 | 7.5 | ≤ 50 |
| CON=Cc1cc2c(cn1)[nH]c1ccccc12 [CHNOCH3, beta-carboline-3-carboxaldehyde-oxime-methylether] | 16 | 0.0513 | – | – | – | 15 | – |
| O=Cc1cc2c(cn1)[nH]c1ccccc12 [CHO, beta-carboline-3-carboxaldehyde] | > 250 | 0.0302 | – | – | – | 8 | – |
| C(=NN1CCCCC1)c1cc2c(cn1)[nH]c1ccccc12 [drawing 43] | – | – | > 100 | > 100 | 50 | – | – |
| CN(C)S(=O)(=O)c1ccc2[nH]c3cnc(C=NN4CCCC4)cc3c2c1 [drawing 48] | – | – | 50 | 20 | 20 | – | – |
| CC(=O)c1cc2c(cn1)[nH]c1ccccc12 [COCH3, 3-acetyl-beta-carboline] | 100 | 0.0224 | > 100 | 75 | 100 | 35 | – |
| CN(C)N=Cc1cc2c(cn1)[nH]c1ccc(S(=O)(=O)N(C)C)cc12 [drawing 46] | – | – | 20 | 15 | 15 | – | – |
